From ChEMBL document CHEMBL4422646, “Synthesis and biological evaluation of 3-amino-, 3-alkoxy- and 3-aryloxy-6-(hetero)arylpyridazines as potent antitumor agents” (Bioorg Med Chem Lett, 2019)

Key:
Caco-2 = experiment: Antiproliferative activity against human Caco2 cells after 48 hrs by Hoechst 33342 staining-based assay; format: functional, cell-based; conditions: Caco-2, 48 h
Huh-7 [1] = experiment: Antiproliferative activity against human HuH7 cells after 48 hrs by Hoechst 33342 staining-based assay; format: functional, cell-based; conditions: Huh-7, 48 h
Huh-7 [2] = experiment: Antiproliferative activity against human HuH7 cells at 0.1 to 25 uM after 48 hrs by Hoechst 33342 staining-based assay relative to control; format: functional
HaCaT = experiment: Antiproliferative activity against human HaCaT cells after 48 hrs by Hoechst 33342 staining-based assay; format: cell-based
HCT-116 = experiment: Antiproliferative activity against human HCT116 cells after 48 hrs by Hoechst 33342 staining-based assay; format: functional, cell-based; conditions: HCT-116, 48 h
MDA-MB-231 = experiment: Antiproliferative activity against human MDA-MB-231 cells after 48 hrs by Hoechst 33342 staining-based assay; format: functional, cell-based; conditions: MDA-MB-231, 48 h
Fibroblast = experiment: Antiproliferative activity against human fibroblast cells after 48 hrs by Hoechst 33342 staining-based assay; format: cell-based
PC-3 = experiment: Antiproliferative activity against human PC3 cells after 48 hrs by Hoechst 33342 staining-based assay; format: functional, cell-based; conditions: PC-3, 48 h
NCI-H727 = experiment: Antiproliferative activity against human NCI-H727 cells after 48 hrs by Hoechst 33342 staining-based assay; format: functional, cell-based; conditions: NCI-H727, 48 h

SMILES	IC50 (Caco-2)	IC50 (Huh-7 [1])	Activity (Huh-7 [2])	IC50 (HaCaT)	IC50 (HCT-116)	IC50 (MDA-MB-231)	IC50 (Fibroblast)	IC50 (PC-3)	IC50 (NCI-H727)
CN1CCN(c2ccc(-c3cccc(C(F)(F)F)c3)nn2)CC1	50 µM	30 µM	75%	> 25 µM	> 25 µM	> 25 µM	> 25 µM	> 25 µM	> 25 µM
c1ccc(-c2ccc(N3CCOCC3)nn2)cc1	> 25 µM	> 25 µM	–	> 25 µM	> 25 µM	> 25 µM	> 25 µM	> 25 µM	> 25 µM
CC(=O)c1cccc(-c2ccc(OCc3ccccc3)nn2)c1	> 25 µM	> 25 µM	–	> 25 µM	> 25 µM	> 25 µM	> 25 µM	> 25 µM	> 25 µM
c1ccc(Oc2ccc(-c3ccsc3)nn2)cc1	> 25 µM	> 25 µM	–	> 25 µM	> 25 µM	> 25 µM	> 25 µM	> 25 µM	> 25 µM
CCN(CC)c1ccc(-c2cccc(OC)c2)nn1	> 25 µM	> 25 µM	–	> 25 µM	> 25 µM	> 25 µM	> 25 µM	> 25 µM	> 25 µM
CCN(CC)c1ccc(-c2cccc(C(F)(F)F)c2)nn1	> 25 µM	> 25 µM	–	> 25 µM	> 25 µM	> 25 µM	> 25 µM	> 25 µM	> 25 µM
COC(=O)c1cccc(-c2ccc(-n3cccc3)nn2)c1	50 µM	30 µM	75%	> 25 µM	> 25 µM	> 25 µM	> 25 µM	> 25 µM	> 25 µM
CCOC(=O)c1ccccc1-c1ccc(N2CCOCC2)nn1	> 25 µM	> 25 µM	–	> 25 µM	> 25 µM	> 25 µM	> 25 µM	> 25 µM	> 25 µM
COc1ccc(-c2ccc(Oc3ccccc3)nn2)cc1	> 25 µM	> 25 µM	–	> 25 µM	> 25 µM	> 25 µM	> 25 µM	> 25 µM	> 25 µM
CCOC(=O)c1ccc(-c2ccc(OC(C)C)nn2)cc1	> 25 µM	> 25 µM	–	> 25 µM	> 25 µM	> 25 µM	> 25 µM	> 25 µM	> 25 µM
CCOC(=O)c1ccc(-c2ccc(N3CCOCC3)nn2)cc1	> 25 µM	> 25 µM	–	> 25 µM	> 25 µM	> 25 µM	> 25 µM	> 25 µM	> 25 µM
Fc1ccc(-c2ccc(N3CCOCC3)nn2)cc1	> 25 µM	> 25 µM	–	> 25 µM	> 25 µM	> 25 µM	> 25 µM	> 25 µM	> 25 µM
FC(F)(F)c1cccc(-c2ccc(N3CCOCC3)nn2)c1	> 25 µM	> 25 µM	–	> 25 µM	> 25 µM	> 25 µM	> 25 µM	> 25 µM	> 25 µM
CCOC(=O)c1ccc(-c2ccc(OCC)nn2)cc1	> 25 µM	> 25 µM	–	> 25 µM	> 25 µM	> 25 µM	> 25 µM	> 25 µM	> 25 µM
N#Cc1ccc(Oc2ccc(-c3ccccc3)nn2)cc1	> 25 µM	> 25 µM	–	> 25 µM	> 25 µM	> 25 µM	> 25 µM	> 25 µM	> 25 µM
CCN(CC)c1ccc(-c2ccc(C#N)cc2)nn1	> 25 µM	> 25 µM	–	> 25 µM	> 25 µM	> 25 µM	> 25 µM	> 25 µM	> 25 µM
Cc1cccc(-c2ccc(Oc3ccc(F)cc3)nn2)c1	> 25 µM	> 25 µM	–	> 25 µM	> 25 µM	> 25 µM	> 25 µM	> 25 µM	> 25 µM
c1ccc2nc(-c3ccc(N4CCOCC4)nn3)ccc2c1	> 25 µM	> 25 µM	–	> 25 µM	> 25 µM	> 25 µM	> 25 µM	> 25 µM	> 25 µM
FC(F)(F)c1cccc(-c2ccc(Oc3ccccc3)nn2)c1	> 25 µM	> 25 µM	–	> 25 µM	> 25 µM	> 25 µM	> 25 µM	> 25 µM	> 25 µM
CCCCOc1ccc(-c2ccc(C(=O)OCC)cc2)nn1	> 25 µM	> 25 µM	–	> 25 µM	> 25 µM	> 25 µM	> 25 µM	> 25 µM	> 25 µM
c1cncc(-c2ccc(N3CCOCC3)nn2)c1	> 25 µM	> 25 µM	–	> 25 µM	> 25 µM	> 25 µM	> 25 µM	> 25 µM	> 25 µM
Cc1cccc(-c2ccc(N3CCOCC3)nn2)c1	> 25 µM	> 25 µM	–	> 25 µM	> 25 µM	> 25 µM	> 25 µM	> 25 µM	> 25 µM
CCN(CC)c1ccc(-c2cccc(Cl)c2)nn1	> 25 µM	> 25 µM	–	> 25 µM	> 25 µM	> 25 µM	> 25 µM	> 25 µM	> 25 µM
CCN(CC)c1ccc(-c2ccc(C(=O)O)cc2)nn1	> 25 µM	> 25 µM	–	> 25 µM	> 25 µM	> 25 µM	> 25 µM	> 25 µM	> 25 µM
CCOC(=O)c1cccc(-c2ccc(N3CCOCC3)nn2)c1	> 25 µM	> 25 µM	–	> 25 µM	> 25 µM	> 25 µM	> 25 µM	> 25 µM	> 25 µM
CCN(CC)c1ccc(-c2cccc(C#N)c2)nn1	> 25 µM	> 25 µM	–	> 25 µM	> 25 µM	> 25 µM	> 25 µM	> 25 µM	> 25 µM
CCCCOc1ccc(-c2cccc(C#N)c2)nn1	> 25 µM	> 25 µM	–	> 25 µM	> 25 µM	> 25 µM	> 25 µM	> 25 µM	> 25 µM
c1cc(-c2ccc(N3CCOCC3)nn2)cs1	> 25 µM	> 25 µM	–	> 25 µM	> 25 µM	> 25 µM	> 25 µM	> 25 µM	> 25 µM
COc1ccc(-c2ccc(N3CCOCC3)nn2)cc1	> 25 µM	> 25 µM	–	> 25 µM	> 25 µM	> 25 µM	> 25 µM	> 25 µM	> 25 µM
